The values below come from PubChem BioAssay (NCI).

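Cells were grown in 96-well plates and exposed to each compound for 48 hours at five concentrations; endpoints were interpolated linearly between bracketing concentrations, or set to the highest concentration if not reached. TGI: total growth inhibition.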

Test systems include UACC-62 melanoma; MCF7 breast; SF-295 CNS; NCI-H460 lung; T-47D breast; KM12 colon; UACC-257 melanoma; RPMI-8226 leukemia; SN12C renal; SNB-19 CNS.
Common to all, as to assay: inhibition of tumour cell growth, NCI panel, 48 h

Take `c1cc(CSc2ncnc3nc[nH]c23)ccn1`: the TGI in the test with UACC-62 melanoma, in the test on MCF7 breast, in the test with SF-295 CNS, in the test on NCI-H460 lung, in the test on T-47D breast and with KM12 colon was over 100 µM each time. Moreover, the TGI in the test with UACC-257 melanoma, in the test on RPMI-8226 leukemia, in the test with SN12C renal and with SNB-19 CNS was over 100 µM throughout.
On to `C/C(=N\O)c1cccc(Nc2c3ccccc3nc3occc23)c1`, for which the TGI in the test on UACC-62 melanoma is 49.1 µM; with MCF7 breast, 34 µM; in the test on SF-295 CNS, 26.7 µM; in the test with NCI-H460 lung, over 100 µM; in the test on T-47D breast, 21.7 µM; with KM12 colon it was over 100 µM. In addition, the TGI in the test on UACC-257 melanoma, with RPMI-8226 leukemia, in the test on SN12C renal and with SNB-19 CNS was over 100 µM each time.
Take `CN(C)NC1=NS(=O)(=O)c2cc3c(=O)n(C)[nH]c3cc2S1`: the TGI in the test with MCF7 breast, with SF-295 CNS, in the test on NCI-H460 lung, in the test on T-47D breast, with KM12 colon and in the test with UACC-257 melanoma was over 10 µM throughout. In addition, the TGI in the test on RPMI-8226 leukemia, with SN12C renal and with SNB-19 CNS was over 10 µM each time.
Take `S=C(S)NCCN1CCNCC1`: the TGI with UACC-62 melanoma was over 100 µM; with MCF7 breast, over 100 µM; in the test on SF-295 CNS, over 100 µM; in the test with NCI-H460 lung it was over 100 µM; in the test on T-47D breast it was 60.7 µM; with KM12 colon, over 100 µM. The TGI in the test on UACC-257 melanoma was 59 µM; in the test with RPMI-8226 leukemia, 47.5 µM; in the test on SN12C renal it was over 100 µM; in the test with SNB-19 CNS, over 100 µM.
Take `O=CC1OC(=O)c2cc(O)c(O)c(O)c2-c2c(cc(O)c(O)c2O)C(=O)OC1C1OC(=O)c2cc(O)c(O)c(O)c2-c2c(O)c(O)c3oc(=O)c4c(c(O)c(O)c5oc(=O)c2c3c54)-c2c(cc(O)c(O)c2O)C(=O)OCC1O` (stereo not drawn): the TGI in the test with UACC-62 melanoma was over 100 µM; with MCF7 breast, 40.6 µM; with SF-295 CNS, 89.4 µM; in the test on NCI-H460 lung, over 100 µM; in the test with T-47D breast, over 100 µM; in the test with KM12 colon, over 100 µM. The TGI is over 100 µM in the test with UACC-257 melanoma, over 100 µM with RPMI-8226 leukemia, 35.5 µM in the test on SN12C renal and over 100 µM in the test with SNB-19 CNS.
With `CCOC(=O)c1cc([N+](=O)[O-])c(Sc2ncnc3nc[nH]c23)c([N+](=O)[O-])c1`, the TGI is 11.9 µM in the test on UACC-62 melanoma; 3.41 µM in the test with MCF7 breast; over 35.6 µM in the test with SF-295 CNS; 25.6 µM in the test with NCI-H460 lung; 30 µM in the test with T-47D breast; 24.5 µM in the test on KM12 colon. For the same compound, the TGI stood at 20.6 µM in the test on UACC-257 melanoma, 6.08 µM with RPMI-8226 leukemia, 30.6 µM in the test with SN12C renal and 32.4 µM in the test with SNB-19 CNS.
Consider `CC(C)C(/C=C/c1ccc(Cl)cc1)=N\NC(=O)N/N=C(/C=C/c1ccc(Cl)cc1)C(C)C`, for which the TGI with UACC-62 melanoma was over 100 µM; with MCF7 breast it was over 100 µM; in the test on SF-295 CNS it was 45.2 µM; with NCI-H460 lung it was 54.8 µM; in the test with T-47D breast, over 100 µM; with KM12 colon it was over 100 µM. For the same compound, the TGI with UACC-257 melanoma is over 100 µM; with RPMI-8226 leukemia, over 100 µM; with SN12C renal, 33.7 µM; with SNB-19 CNS it was 38.8 µM.
For `C[C@@H](c1ccccc1)N1CO[C@@]2(C#Cc3ccc4c(c3)OCO4)CCC[C@@H]12`, the TGI with UACC-62 melanoma was over 100 µM; in the test on MCF7 breast, over 100 µM; with SF-295 CNS, 28.1 µM; with NCI-H460 lung, 26 µM; with T-47D breast, 34 µM; in the test with KM12 colon it was 34.7 µM. For the same compound, the TGI is 38.2 µM in the test with UACC-257 melanoma, 38 µM in the test on RPMI-8226 leukemia, 33.3 µM with SN12C renal and 30.3 µM with SNB-19 CNS.
Regarding `CC1CC(=O)Nc2ccccc2N1C(=O)C1CC1` (stereo not drawn), the TGI in the test with MCF7 breast, with SF-295 CNS, in the test on NCI-H460 lung, with T-47D breast, in the test on KM12 colon and in the test with UACC-257 melanoma was over 100 µM in each case. Besides, the TGI in the test with RPMI-8226 leukemia, in the test on SN12C renal and in the test on SNB-19 CNS was over 100 µM each time.
As for `CCOc1cc2c(cc1O)C(=O)C[C@@H]1[C@@H]2CC[C@]2(C)[C@@H](O)CC[C@@H]12`, the TGI was over 100 µM in the test with UACC-62 melanoma; over 100 µM in the test on MCF7 breast; 9.52 µM in the test with SF-295 CNS; 12.4 µM in the test on NCI-H460 lung; over 100 µM in the test on T-47D breast; 29.6 µM in the test on KM12 colon. Besides, the TGI with UACC-257 melanoma was over 100 µM; in the test with RPMI-8226 leukemia it was over 9.48 µM; in the test with SN12C renal it was over 100 µM; in the test on SNB-19 CNS, over 55.2 µM.
Turning to `CN(Cc1cnc2nc(N)nc(N)c2n1)c1ccc(C(=O)NCCCC(=O)O)cc1`, the TGI with UACC-62 melanoma, in the test on MCF7 breast, in the test on SF-295 CNS, in the test with NCI-H460 lung, with T-47D breast and in the test on KM12 colon was over 100 µM throughout. Also, the TGI in the test with UACC-257 melanoma, in the test on RPMI-8226 leukemia, in the test with SN12C renal and in the test with SNB-19 CNS was over 100 µM each time.
With `CON[N+]([O-])=NC(C)C`, the TGI in the test on UACC-62 melanoma, with MCF7 breast, with SF-295 CNS, in the test with NCI-H460 lung, in the test with T-47D breast and with KM12 colon was over 100 µM throughout. For the same compound, the TGI in the test on UACC-257 melanoma, with RPMI-8226 leukemia, in the test on SN12C renal and in the test on SNB-19 CNS was over 100 µM throughout.
For `Cc1cccc(N=N/C(=N\NC(=O)c2cc(Cl)ccc2O)c2ccc(N(CCC#N)CCC#N)cc2C)c1`, the TGI with UACC-62 melanoma is 84.6 µM; with MCF7 breast it was over 100 µM; with SF-295 CNS, over 100 µM; in the test with NCI-H460 lung, 79.7 µM; with T-47D breast it was 59.6 µM; in the test with KM12 colon, 87.7 µM. Further, the TGI was 97.6 µM in the test on UACC-257 melanoma, 44.9 µM with RPMI-8226 leukemia, 69 µM with SN12C renal and over 100 µM in the test with SNB-19 CNS.
